From ChEMBL document CHEMBL4052606, “The Bengamides: A Mini-Review of Natural Sources, Analogues, Biological Properties, Biosynthetic Origins, and Future Prospects” (J Nat Prod, 2017) come the findings set out here.

Assay [1] deals with MDA-MB-435. Description: Cytotoxicity against human MDA-MB-435 cells. In kind it is functional, cell-based.
Assay [2] deals with MDA-MB-435. Description: Cytotoxicity against human MDA-MB-435 cells assessed as reduction in cell viability after 72 hrs by MTS assay. Particulars: MDA-MB-435, 72 h. On the technique in general: Tetrazolium dyes change colour on reduction, which living cells bring about.
Assay [3] has as its system HCT-116. Description: cells. As to conditions: Homo sapiens, HCT-116, 96 h.
Description: Antiproliferative activity against human HCT116 cells after 96 hrs
The subject of assay [4] is A549. Description: Antiproliferative activity against human A549 cells after 96 hrs. Particulars: A549, 96 h.
Assay [5] relates to MDA-MB-231. Put plainly: Cytotoxicity against human MDA-MB-231 cells. In kind it is functional, cell-based.
In assay [6] the target is Methionine aminopeptidase 2 (Homo sapiens, UniProt P50579). Description: Inhibition of human MetAP2.
The test system of assay [7] is MDA-MB-435. Put plainly: Cytotoxicity against human MDA-MB-435 cells assessed as reduction in cell viability after 24 hrs by MTT assay. In kind it is functional, cell-based. As to conditions: MDA-MB-435, 24 h.
Assay [8] relates to HT-1080. Put plainly: Cytotoxicity against human HT1080 cells.
The target of assay [9] is Methionine aminopeptidase 1 (Homo sapiens, UniProt P53582). Put plainly: Inhibition of human MetAP1.

Sequence of Methionine aminopeptidase 2 (P50579 whole entry): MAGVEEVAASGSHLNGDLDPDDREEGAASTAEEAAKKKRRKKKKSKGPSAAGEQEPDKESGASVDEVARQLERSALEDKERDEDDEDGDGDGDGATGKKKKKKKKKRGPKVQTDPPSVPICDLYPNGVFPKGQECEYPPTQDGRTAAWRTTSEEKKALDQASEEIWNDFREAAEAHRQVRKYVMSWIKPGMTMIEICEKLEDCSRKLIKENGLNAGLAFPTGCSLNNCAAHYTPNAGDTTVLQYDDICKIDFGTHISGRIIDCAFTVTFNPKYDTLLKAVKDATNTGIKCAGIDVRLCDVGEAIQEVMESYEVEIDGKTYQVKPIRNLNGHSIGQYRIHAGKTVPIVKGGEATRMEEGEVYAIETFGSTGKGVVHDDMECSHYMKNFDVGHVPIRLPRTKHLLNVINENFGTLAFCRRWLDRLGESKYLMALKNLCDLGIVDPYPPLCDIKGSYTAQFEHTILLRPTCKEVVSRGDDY

One may read the IC50 as the concentration needed to halve the response being measured. In assay [1], `CO[C@@H](C(=O)N[C@H]1CCCCNC1=O)[C@H](O)[C@@H](O)[C@H](O)/C=C\C(C)C` registered an IC50 of 14 nM.
Regarding `CO[C@@H](C(=O)N[C@H]1CCCCNC1=O)[C@H](O)[C@@H](O)[C@H](O)/C=C/C(C)C` [BENGAMIDE E], the values for the IC50 in assay [2], in [1] and in assay [3] were 4 to 7 nM, 3.8 nM and 3.8 to 600 nM, respectively.
On to `CO[C@H](C(=O)N[C@H]1CCCCNC1=O)[C@@H](O)[C@H](O)[C@@H](O)/C=C/C(C)C`, for which the IC50 in [1] amounted to 4 nM.
Same read-out and setting: the value for `CO[C@@H](C(=O)N[C@H]1CCCCNC1=O)[C@H](O)[C@@H](O)[C@H](O)/C=C/C1CCCC1` was 0.4 nM.
For `CO[C@@H](C(=O)N[C@H]1CC[C@@H](OC(=O)C2CCCCC2)CNC1=O)[C@H](O)[C@@H](O)[C@H](O)/C=C/C(C)(C)C`, the half-inhibitory concentration (IC50) in [2] is 40 nM; in [4] it was 13 nM; in assay [3], 23 to 40 nM.
Take `CNC(=O)[C@H](CC(C)C)NC(=O)[C@H](OC)[C@H](O)[C@@H](O)[C@H](O)/C=C/C(C)(C)C`: inhibition in assay [1] was half-maximal at 20000 nM (IC50).
For the compound `CO[C@H]1[C@@H](OC(=O)/C=C/C=C/C=C/C=C/C(=O)O)CC[C@]2(CO2)[C@@H]1[C@@]1(C)O[C@@H]1CC=C(C)C`, the 50% inhibitory concentration (IC50) in assay [5] was found to be 54 nM; in assay [6], 200 nM.
Consider `CC(C)/C=C/[C@@H](O)[C@H](O)[C@@H](O)[C@@H](O)C(=O)N[C@H]1CCCCNC1=O`, for which the IC50 in [2] stood at 12000 nM.
In assay [3], `CO[C@H](C(=O)N[C@@H]1CCCCNC1=O)[C@@H](O)[C@H](O)[C@@H](O)/C=C/C(C)C` yielded an IC50 above 50000 nM.
Turning to `CO[C@@H](C(=O)N[C@@H](C)C(=O)NCCOC(=O)C1CCCCC1)[C@H](O)[C@@H](O)[C@H](O)/C=C/C(C)(C)C`, the IC50 in [7] is 4 nM.
On to `CCCCCCCCCCCCCC(=O)O[C@H]1CC[C@H](NC(=O)[C@H](OC)[C@H](O)[C@@H](O)[C@H](O)/C=C/C(C)C)C(=O)NC1` [BENGAMIDE A], for which the IC50 in assay [2] was 1 nM; in assay [3], 0.4 to 16 nM.
`CO[C@@H](C(=O)N[C@H]1CC[C@H](O)CN(C)C1=O)[C@H](O)[C@@H](O)[C@H](O)/C=C/C(C)C` [BENGAMIDE F]: in assay [2], the IC50 was 3 nM.
As to `CO[C@@H](C(=O)N[C@H]1CC[C@H](OC(=O)CCCCCCCCCCC(C)C)CN(C)C1=O)[C@H](O)[C@@H](O)[C@H](O)/C=C/C(C)C`, the IC50 in assay [6] was above 50000 nM.
Compound `CO[C@@H](C(=O)N[C@H]1CCCCN(CCOC(=O)C2CCCCC2)C1=O)[C@H](O)[C@@H](O)[C@H](O)/C=C/C(C)(C)C` returned an IC50 in [1] of 17 nM.
Regarding `CC(C)(C)OC(=O)Nc1cccnc1C(=O)Nc1nccs1`, the results for the IC50 in assay [6] and in assay [8] were above 300000 nM and 300 nM, respectively.
For the compound `CCCCCCCCCCCCCC(=O)O[C@H]1CC[C@H](NC(=O)[C@H](OC)[C@H](O)[C@@H](O)[C@H](O)/C=C/C(C)C)C(=O)N(C)C1` [BENGAMIDE B], the IC50 in assay [2] worked out at 2 nM.
Take `CCCCCCCCCCCCCC(=O)OCCC[C@H](NC(=O)[C@H](OC)[C@H](O)[C@@H](O)[C@H](O)/C=C/C(C)(C)C)C(=O)NC`: in assay [1], half-maximal inhibition (IC50) required 190 nM.
Turning to `CO[C@@H](C(=O)N[C@H]1CCc2ccccc2NC1=O)[C@H](O)[C@@H](O)[C@H](O)/C=C/C(C)(C)C`, the figures for the IC50 in assay [2], in assay [4] and in assay [3] were 3.8 nM, 9 nM and 44 nM, respectively.
`COc1ccc(N2CCN(c3nc(-c4ccccn4)nc4ccccc34)CC2)cc1` yielded an IC50 in [6] above 100000 nM.
In the case of `CO[C@@H](C(=O)N[C@H]1CC[C@@H](OC(=O)C2CCCCC2)CNC1=O)[C@H](O)[C@@H](O)[C@H](O)/C(C)=C/C(C)(C)C`, the values for the IC50 in assay [9] and in assay [3] were above 10000 nM and 140 nM, respectively.
